Holding throughout (assay type): in vivo
Experiment [1] relates to Romaine lettuce (Lactuca sativa L.) plants. The experiment in a line: Post-emergence herbicidal activity on potted Romaine lettuce plants (soil or foliar application). The following applies: lettuce at 2 to 3 leaves, two weeks after treatment. As for the experimental part: The tests were performed on Romaine lettuce (Lactuca sativa L.) plants at the stage 2 to 3 leaves. The plants were grown in mini-pots packed with soil, dimensions 2×2×5 cm, one plant per mini-pot. Test compounds were dissolved in 0.1% aqueous solution water solution of Silwet adjuvant to final concentrations ranging from 0 (Control) to 0.0001%. The test compounds were applied on soil (1 ml per pot) or foliar with airbrush (0.1 ml per pot). Each concentration was tested on 20 plants. Two weeks after the treatment the herbicidal effects of the respective test material were visually evaluated (aboveground part and roots. Then the aboveground part of the plants was neatly cut and weighed (wet weight) to assess the growth inhibition caused by the test compound. The growth inhibition (GI) was calculated as following: […]
Where Mt and Mc are median wet weight of treated and control plants, respectively. In the context of the invention, the herbicidal effect was assessed by concentration of the compound causing more than 85% of Growth Inhibition (GI) or irreversible damage of the plants (Table 3). Herbicidal activity of selected DHAAs is summarized in Table 4 (soil application) and Table 5 (Foliar application).

Experiment [2] concerns Seeds of Lettuce R. (Super-Jericho). The experiment is described as follows: Filter paper bioassay with lettuce seeds: germination and early plant development, Minimal Effective Concentration (MEC). The following applies: lettuce seeds on filter paper, 0 to 1 mmol/l, visually assessed after 6 days. The essentials: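 Non-sterilized Super-Jericho lettuce seeds, 10 per dish, on filter paper wetted with aqueous test solution at 0–1 mmol/l. Kept 48 h dark, then 4 days at 6/18 dark/light. MEC is the lowest concentration causing no germination or radicle/shoot malformation by visual scoring at day 6; at least two repeats.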

The test system is the same in experiment [3]. The experiment in a line: Filter paper bioassay with lettuce seeds: germination, Fully Effective Concentration (FEC). Conditions: lowest concentration mostly preventing lettuce seed germination, assessed after 6 days. From the text: Materials: Seeds of Lettuce R. (Super-Jericho, non-sterilized) were obtained from Ben Shahar Moshe Ltd., 99% purity. The test compounds listed in the Table 2 below were synthetized de novo or purchased from different vendors.
Filter Paper Bioassays with Lettuce seeds: The protocol is following Bertin et al. 2009 and Movellan et al. 2014 with specified modifications as described below.
Seeds were placed on Whatman no. 1 filter paper (Whatman, Middlesex, U.K.) in Petri dishes (10 seeds per plate) with 2.0 ml of aqueous solution of a test material in concentration ranged from 0 (control) to 1 mmol/l were placed in a tray tilted at 45°. The trays were kept in dark for 48 hours and then transferred to the growth chamber with 6/18 dark/light cycle for 4 days. Each experiment was performed at least with two repeats.
The development of plants' radicle and shoots were visually assessed 6 days after the beginning of the test to determine Fully Effective Concentration (FEC) of a test material. In the context of the invention, FED is defined as the lowest concentration level of a test material that mostly preventing seeds germination.

In the case of “(6-bromopyridin-2-yl)methyl(2,5-dichlorothiophen-3-yl)acetate [compound 5759]”, the “Score (test material causing more than 85% of Growth Inhibition or irreversible plant damage)” value in experiment [1] (foliar application) and in experiment [1] (soil application) was “strong (0.01 to 0.05)” throughout. Moreover, the “Score (activity score of Minimal Effective Concentration, MEC)” value in experiment [2] is recorded as “very strong”. For the same compound, the “FEC (Fully Effective Concentration)” value in experiment [3] is on record as 0.010 mM.
“2-(2-methoxyethoxy)ethyl(2-chloro-1,3-thiazol-4-yl)(difluoro)acetate [compound 5771]”: in experiment [1] (foliar application), the “Score (test material causing more than 85% of Growth Inhibition or irreversible plant damage)” value was “strong (0.01 to 0.05)”. In experiment [2], the “Score (activity score of Minimal Effective Concentration, MEC)” value was “very strong”. Moreover, the “FEC (Fully Effective Concentration)” value in experiment [3] is 0.050 mM.
Consider “(4-bromophenyl)methyl(2,5-dichlorothiophen-3-yl)(difluoro)acetate [compound 5768]”, for which the “Score (test material causing more than 85% of Growth Inhibition or irreversible plant damage)” value in experiment [1] (foliar application) is listed as “strong (0.01 to 0.05)”; in experiment [1] (soil application), “moderate (0.5)”. Further, the “Score (activity score of Minimal Effective Concentration, MEC)” value in experiment [2] is reported as “Strong (0.01 mM)”. In addition, the “FEC (Fully Effective Concentration)” value in experiment [3] was determined as 0.500 mM.
As to “ethyl 2-(2-chloro-1,3-thiazol-4-yl)-2,2-difluoroacetate [compound 5784]”, the “Score (activity score of Minimal Effective Concentration, MEC)” value in experiment [2] is recorded as “very strong”. Also, the “FEC (Fully Effective Concentration)” value in experiment [3] came to 0.050 mM.
On to “2-(2-methoxyethoxy)ethyl(2-chloro-1,3-thiazol-4-yl)(difluoro)acetate [compound 5746]”, for which the “Score (test material causing more than 85% of Growth Inhibition or irreversible plant damage)” value in experiment [1] (foliar application) and in experiment [1] (soil application) was “strong (0.01 to 0.05)” each time. Also, the “Score (activity score of Minimal Effective Concentration, MEC)” value in experiment [2] is reported as “very strong”. Besides, the “FEC (Fully Effective Concentration)” value in experiment [3] was 0.001 mM.
As to “2-oxo-2-phenylethyl(2-chloro-1,3-thiazol-4-yl)(difluoro)acetate [compound 5741]”, in experiment [2], the “Score (activity score of Minimal Effective Concentration, MEC)” value is recorded as “very strong”. Besides, the “FEC (Fully Effective Concentration)” value in experiment [3] turned out to be 0.050 mM.
For the compound “2,5,8,11,14-pentaoxahexadecan-16-yl 2-(2-chloro-1,3-thiazol-4-yl)-2,2-difluoroacetate [compound 5778]”, the “Score (test material causing more than 85% of Growth Inhibition or irreversible plant damage)” value in experiment [1] (foliar application) is “moderate (0.5)”. Moreover, the “Score (activity score of Minimal Effective Concentration, MEC)” value in experiment [2] is on record as “very strong”. The “FEC (Fully Effective Concentration)” value in experiment [3] is 5.000 mM.
In the case of “(6-bromopyridin-2-yl)methyl2-(2,5-dichlorothiophen-3-yl)-2,2-difluoroacetate [compound 5757]”, the “Score (test material causing more than 85% of Growth Inhibition or irreversible plant damage)” value in experiment [1] (soil application) is listed as “strong (0.01 to 0.05)”. Also, the “Score (activity score of Minimal Effective Concentration, MEC)” value in experiment [2] was “Strong (0.01 mM)”. For the same compound, in experiment [3], the “FEC (Fully Effective Concentration)” value amounted to 0.100 mM.
For `O=C(O)/C=C/c1sc(Cl)nc1Cl` [compound 5622, (2E)-3-(2,4-dichloro-1,3-thiazol-5-yl)prop-2-enoic acid], the “Score (activity score of Minimal Effective Concentration, MEC)” value in experiment [2] was “Moderate (0.1 mM)”. Also, in experiment [3], the “FEC (Fully Effective Concentration)” value was 1.000 mM.
On to “(4-bromophenyl)methyl(2,5-dichlorothiophen-3-yl)acetate [compound 5735]”, for which the “Score (activity score of Minimal Effective Concentration, MEC)” value in experiment [2] is recorded as “strong.strong”. Moreover, in experiment [3], the “FEC (Fully Effective Concentration)” value is recorded as 0.500 mM.
For `NC(N)=NCCc1cc(Cl)sc1Cl` [compound 5769, N″-[2-(2,5-dichlorothiophen-3-yl)ethyl]guanidine], in that order: “Strong (0.01 mM)” and 0.100 mM.
In the case of “3-(2,5-dichlorothiophen-3-yl)-2-oxopropanoic acid [compound 5612]”, the “Score (activity score of Minimal Effective Concentration, MEC)” value in experiment [2] is recorded as “Strong (0.01 mM)”. Besides, the “FEC (Fully Effective Concentration)” value in experiment [3] worked out at 0.100 mM.
Consider `O=C(Cc1ccc(Br)cc1)C(F)(F)c1csc(Cl)n1` [compound 5756, 3-(4-bromophenyl)-1-(2-chloro-1,3-thiazol-4-yl)-1,1-difluoropropan-2-one], for which, in experiment [2], the “Score (activity score of Minimal Effective Concentration, MEC)” value is on record as “very strong”. Also, the “FEC (Fully Effective Concentration)” value in experiment [3] turned out to be 0.010 mM.
On to `NC(=O)Cc1cc(Cl)sc1Cl` [compound 5609, 2-(2,5-dichlorothiophen-3-yl)acetamide], for which, in experiment [2], the “Score (activity score of Minimal Effective Concentration, MEC)” value is on record as “Strong (0.01 mM)”. Moreover, the “FEC (Fully Effective Concentration)” value in experiment [3] turned out to be 1.000 mM.
As to “2-oxo-2-(pyridin-2-yl)ethyl(2-chloro-1,3-thiazol-4-yl)(difluoro)acetate [compound 5740]”, the “Score (activity score of Minimal Effective Concentration, MEC)” value in experiment [2] was “very strong”. Further, the “FEC (Fully Effective Concentration)” value in experiment [3] is recorded as 0.050 mM.
For `O=C(O)CNC(=O)C(F)(F)c1cc(Cl)sc1Cl` [compound 5644, [2-(2,5-dichlorothiophen-3-yl)(difluoro)acetamido]acetic acid], in that order: “Strong (0.01 mM)” and 1.000 mM.
With `CCOC(=O)C(F)(F)c1csc(C(F)(F)F)n1` [compound 5781], the “Score (test material causing more than 85% of Growth Inhibition or irreversible plant damage)” value in experiment [1] (foliar application) is recorded as “strong (0.01 to 0.05)”. For the same compound, the “Score (activity score of Minimal Effective Concentration, MEC)” value in experiment [2] is reported as “Strong (0.01 mM)”.
“2-chloro-4-(2-hydrazinylethyl)-1,3-thiazole [compound 5702]”: in experiment [2], the “Score (activity score of Minimal Effective Concentration, MEC)” value was “Moderate (0.1 mM)”. In addition, in experiment [3], the “FEC (Fully Effective Concentration)” value is 2.000 mM.
For the compound “2-(2,5-dichlorothiophen-3-yl)-2,2-difluoroacetamide [compound 5636]”, the “Score (activity score of Minimal Effective Concentration, MEC)” value in experiment [2] is “Strong (0.01 mM)”. In addition, in experiment [3], the “FEC (Fully Effective Concentration)” value came to 0.100 mM.
Taken in the same sequence, the figures for `O=C(OCc1ccccc1)C(F)(F)c1csc(Cl)n1` [compound 5762, benzyl (2-chloro-1,3-thiazol-4-yl)(difluoro)acetate] were “very strong” and 0.010 mM.
For `Cc1sc(C(F)(F)F)nc1C(F)(F)C(=O)O` [compound 5717, 2,2-difluoro-2-[5-methyl-2-(trifluoromethyl)-1,3-thiazol-4-yl]acetic acid], in that order: “Strong (0.01 mM)” and 0.100 mM.
Take “2-(2-chloro-1,3-thiazol-4-yl)-2,2-difluoroethan-1-ol [compound 5724]”: in experiment [1] (soil application), the “Score (test material causing more than 85% of Growth Inhibition or irreversible plant damage)” value was “strong (0.01 to 0.05)”. The “Score (activity score of Minimal Effective Concentration, MEC)” value in experiment [2] is reported as “Moderate (0.1 mM)”.
For `O=C(Cc1csc(Cl)n1)OCc1ccccc1` [compound 5758, benzyl 2-(2-chloro-1,3-thiazol-4-yl)acetate], the “Score (activity score of Minimal Effective Concentration, MEC)” value in experiment [2] is “Strong (0.01 mM)”. In addition, the “FEC (Fully Effective Concentration)” value in experiment [3] is reported as 0.100 mM.
On to `NCCCCc1cc(Cl)sc1Cl` [compound 5657, 4-(2,5-dichlorothiophen-3-yl)butan-1-amine], for which the “Score (activity score of Minimal Effective Concentration, MEC)” value in experiment [2] is on record as “Moderate (0.1 mM)”. Moreover, the “FEC (Fully Effective Concentration)” value in experiment [3] worked out at 0.100 mM.
Turning to `N#Cc1cscc1C(F)(F)C(=O)O` [compound 5779, (4-cyanothiophen-3-yl)(difluoro)acetic acid], the “Score (activity score of Minimal Effective Concentration, MEC)” value in experiment [2] is on record as “Strong (0.01 mM)”. For the same compound, the “FEC (Fully Effective Concentration)” value in experiment [3] was 1.000 mM.
Taken in the same sequence, the figures for “2,2-difluoro-2-[5-(trifluoromethyl)-1,3-thiazol-2-yl]acetic acid [compound 5710]” were “Strong (0.01 mM)” and 0.100 mM.
Take “2,2-difluoro[2-(trifluoromethyl)-1,3-thiazol-5-yl]acetic acid [compound 5700]”: the “Score (activity score of Minimal Effective Concentration, MEC)” value in experiment [2] was “Moderate (0.1 mM)”. Besides, the “FEC (Fully Effective Concentration)” value in experiment [3] was determined as 2.000 mM.
Turning to `O=C(O)C(F)(F)c1nc(Cl)sc1F` [compound 5751, (2-chloro-5-fluoro-1,3-thiazol-4-yl)(difluoro)acetic acid], in experiment [2], the “Score (activity score of Minimal Effective Concentration, MEC)” value is “strong.strong”. In addition, in experiment [3], the “FEC (Fully Effective Concentration)” value is on record as 0.100 mM.

The record behind these values is patent publication US20240284907A1, “NOVEL DERIVATIVES OF NON-CODED AMINO ACIDS AND THEIR USE AS HERBICIDES” (FortePhest LTD., priority 2021, published 2024).
